Laboratory results reported in ChEMBL document CHEMBL5665443, “Enzyme Inhibitor Single Concentration assay results for EUbOPEN Chemogenomics Library” (2024).

Tests used:
[1] = biological target: Uracil-DNA glycosylase (Homo sapiens) (UniProt P13051); details: Hit No;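 note: UNG excision on a quenched double-stranded DNA oligo probe, with APE1 added for strand incision and turnover, read as fluorescence at 594 nm as strands separate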
Description: Inhibition of UNG by quantifying inhibition of UNG-mediated cleavage and dissociation of quenched duplex DNA oligonucleotides, measured as fluorescence at 594 nm. To generate a functional strand incision and increase turn-over this assay is coupled to APE1.

[2] = biological target: N-glycosylase/DNA lyase (Homo sapiens) (UniProt O15527);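 note: OGG1 cleavage of a quenched duplex DNA oligonucleotide, coupled to APE1 for strand incision, read as fluorescence at 594 nm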
Description: Inhibition of OGG1 by quantifying inhibition of OGG1-mediated cleavage and dissociation of quenched duplex DNA oligonucleotides, measured as fluorescence at 594 nm. To generate a functional strand incision and increase turn-over this assay is coupled to APE1.

[3] = biological target: T1, Adenine DNA glycosylase (Homo sapiens) (UniProt Q9UIF7); details: Hit No;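 note: human MUTYH activity read as 594 nm fluorescence from cleavage and release of a quenched DNA duplex, coupled with APE1 for strand incision, lower signal meaning inhibition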
T1 sequence (whole entry): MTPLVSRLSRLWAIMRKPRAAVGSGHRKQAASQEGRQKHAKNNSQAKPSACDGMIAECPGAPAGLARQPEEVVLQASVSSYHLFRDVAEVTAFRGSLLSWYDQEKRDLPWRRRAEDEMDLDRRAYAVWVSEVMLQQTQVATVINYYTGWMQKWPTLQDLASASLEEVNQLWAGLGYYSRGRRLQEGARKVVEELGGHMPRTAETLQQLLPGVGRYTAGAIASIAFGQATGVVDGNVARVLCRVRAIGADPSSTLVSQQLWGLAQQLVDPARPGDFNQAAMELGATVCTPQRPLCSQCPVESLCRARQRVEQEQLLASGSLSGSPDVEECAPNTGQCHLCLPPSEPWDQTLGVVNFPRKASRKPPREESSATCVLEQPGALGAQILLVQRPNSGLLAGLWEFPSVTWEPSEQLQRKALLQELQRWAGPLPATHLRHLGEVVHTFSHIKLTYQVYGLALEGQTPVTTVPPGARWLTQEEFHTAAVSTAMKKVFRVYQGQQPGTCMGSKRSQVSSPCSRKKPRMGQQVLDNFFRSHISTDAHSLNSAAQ
Description: Inhibition of MUTYH by quantifying inhibition of MUTYH-mediated cleavage and dissociation of quenched duplex DNA oligonucleotides, measured as fluorescence at 594 nm. To generate a functional strand incision and increase turn-over this assay is coupled to APE1.

[4] = biological target: T2, Single-strand selective monofunctional uracil DNA glycosylase (Homo sapiens) (UniProt Q53HV7); details: Hit No;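 note: enzymatic SMUG1 assay coupled with APE1, reading fluorescence at 594 nm released when a quenched double-stranded DNA oligonucleotide substrate is cleaved and separated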
T2 sequence (whole entry): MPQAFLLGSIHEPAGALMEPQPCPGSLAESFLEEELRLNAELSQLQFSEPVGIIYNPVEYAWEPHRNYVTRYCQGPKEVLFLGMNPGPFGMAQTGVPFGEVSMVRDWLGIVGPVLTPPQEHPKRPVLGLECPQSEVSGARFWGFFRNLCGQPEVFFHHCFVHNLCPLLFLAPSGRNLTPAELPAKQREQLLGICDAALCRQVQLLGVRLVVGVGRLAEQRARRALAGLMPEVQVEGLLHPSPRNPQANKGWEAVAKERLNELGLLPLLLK
Description: Inhibition of SMUG1 by quantifying inhibition of SMUG1-mediated cleavage and dissociation of quenched duplex DNA oligonucleotides, measured as fluorescence at 594 nm. To generate a functional strand incision and increase turn-over this assay is coupled to APE1.

[5] = biological target: Endonuclease 8-like 1 (Homo sapiens) (UniProt Q96FI4); details: Hit No;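 note: fluorescence at 594 nm from quenched duplex DNA oligonucleotides released by NEIL1 cleavage and strand separation, reported as reduction of this enzyme activity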
Description: Inhibition of NEIL1 by quantifying inhibition of NEIL1-mediated cleavage and dissociation of quenched duplex DNA oligonucleotides, measured as fluorescence at 594 nm.

[6] = biological target: G/T mismatch-specific thymine DNA glycosylase (Homo sapiens) (UniProt Q13569); details: Hit No;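 note: human TDG cleavage of quenched duplex DNA oligonucleotides coupled to APE1, strand release read as fluorescence at 594 nm, inhibition of TDG activity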
Description: Inhibition of TDG by quantifying inhibition of TDG-mediated cleavage and dissociation of quenched duplex DNA oligonucleotides, measured as fluorescence at 594 nm. To generate a functional strand incision and increase turn-over this assay is coupled to APE1.

[7] = biological target: Methyl-CpG-binding domain protein 4 (Homo sapiens) (UniProt O95243); details: Hit No;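 note: MBD4 activity read as fluorescence at 594 nm from cleavage and release of a quenched duplex DNA oligonucleotide, with APE1 coupled to incise the strand and raise turnover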
Description: Inhibition of MBD4 by quantifying inhibition of MBD4-mediated cleavage and dissociation of quenched duplex DNA oligonucleotides, measured as fluorescence at 594 nm. To generate a functional strand incision and increase turn-over this assay is coupled to APE1.

[8] = biological target: T3, Endonuclease III-like protein 1 (Homo sapiens) (UniProt P78549); details: Hit No;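 note: enzyme assay tracking NTHL1 cutting and release of a quenched double-stranded DNA oligo substrate, read as fluorescence at 594 nm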
T3 sequence (whole entry): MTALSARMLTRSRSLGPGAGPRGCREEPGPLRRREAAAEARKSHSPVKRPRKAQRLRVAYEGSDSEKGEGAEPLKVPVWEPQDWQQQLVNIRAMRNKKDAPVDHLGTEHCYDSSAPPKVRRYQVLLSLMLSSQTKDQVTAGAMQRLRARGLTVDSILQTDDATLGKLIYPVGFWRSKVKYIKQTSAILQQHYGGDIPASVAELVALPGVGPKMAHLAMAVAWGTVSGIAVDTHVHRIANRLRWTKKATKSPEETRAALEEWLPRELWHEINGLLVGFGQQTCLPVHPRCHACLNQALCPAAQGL
Description: Inhibition of NTHL1 by quantifying inhibition of NTHL1-mediated cleavage and dissociation of quenched duplex DNA oligonucleotides, measured as fluorescence at 594 nm.

[9] = biological target: T4, Endonuclease 8-like 2 (Homo sapiens) (UniProt Q969S2); details: Hit No;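 note: fluorescence at 594 nm reports NEIL2 cutting and release of a quenched double-stranded DNA oligo substrate, reduced signal read as inhibition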
T4 sequence (whole entry): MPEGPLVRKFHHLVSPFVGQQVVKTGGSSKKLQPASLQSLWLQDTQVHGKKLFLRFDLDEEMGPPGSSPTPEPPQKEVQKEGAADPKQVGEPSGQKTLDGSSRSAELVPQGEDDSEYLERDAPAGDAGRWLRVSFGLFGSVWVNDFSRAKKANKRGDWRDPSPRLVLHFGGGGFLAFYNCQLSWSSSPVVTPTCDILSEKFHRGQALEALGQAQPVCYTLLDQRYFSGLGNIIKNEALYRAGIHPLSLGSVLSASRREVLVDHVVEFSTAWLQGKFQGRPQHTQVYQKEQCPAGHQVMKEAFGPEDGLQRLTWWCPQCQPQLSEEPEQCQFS
Description: Inhibition of NEIL2 by quantifying inhibition of NEIL2-mediated cleavage and dissociation of quenched duplex DNA oligonucleotides, measured as fluorescence at 594 nm.

[10] = Compound Concentration 10.0 uM, Hit Yes
[11] = Compound Concentration 10.0 uM, Hit No
[12] = Compound Concentration 1.0 uM, Hit No

Sequence of N-glycosylase/DNA lyase (Homo sapiens) (O15527 whole entry): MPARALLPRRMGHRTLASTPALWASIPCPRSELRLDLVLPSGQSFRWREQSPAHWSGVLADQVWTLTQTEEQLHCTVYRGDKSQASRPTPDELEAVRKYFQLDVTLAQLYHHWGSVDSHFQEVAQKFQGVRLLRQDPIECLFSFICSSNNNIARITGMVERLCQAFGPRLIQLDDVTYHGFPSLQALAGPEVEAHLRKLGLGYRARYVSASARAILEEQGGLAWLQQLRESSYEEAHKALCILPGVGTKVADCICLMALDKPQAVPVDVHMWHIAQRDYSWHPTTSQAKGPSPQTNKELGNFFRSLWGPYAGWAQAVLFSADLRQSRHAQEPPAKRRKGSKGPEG
Sequence of Methyl-CpG-binding domain protein 4 (Homo sapiens) (O95243 whole entry, the tested form may be a part): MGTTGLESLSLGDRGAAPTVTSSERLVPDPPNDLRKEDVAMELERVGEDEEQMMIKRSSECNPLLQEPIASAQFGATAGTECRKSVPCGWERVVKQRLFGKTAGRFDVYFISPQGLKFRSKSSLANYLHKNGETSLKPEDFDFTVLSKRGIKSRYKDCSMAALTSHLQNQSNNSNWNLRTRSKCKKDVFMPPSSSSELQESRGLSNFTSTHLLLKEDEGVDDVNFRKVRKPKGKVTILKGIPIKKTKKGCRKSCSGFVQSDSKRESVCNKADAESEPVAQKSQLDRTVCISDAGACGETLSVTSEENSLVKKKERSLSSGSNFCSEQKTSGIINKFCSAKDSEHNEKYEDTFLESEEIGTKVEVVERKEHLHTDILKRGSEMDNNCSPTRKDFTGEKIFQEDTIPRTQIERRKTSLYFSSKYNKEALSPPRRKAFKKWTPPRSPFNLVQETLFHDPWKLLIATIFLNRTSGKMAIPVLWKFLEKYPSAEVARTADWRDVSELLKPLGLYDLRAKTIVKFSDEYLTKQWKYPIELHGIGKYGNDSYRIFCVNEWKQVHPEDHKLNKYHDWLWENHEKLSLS
Sequence of Endonuclease 8-like 1 (Homo sapiens) (Q96FI4 whole entry): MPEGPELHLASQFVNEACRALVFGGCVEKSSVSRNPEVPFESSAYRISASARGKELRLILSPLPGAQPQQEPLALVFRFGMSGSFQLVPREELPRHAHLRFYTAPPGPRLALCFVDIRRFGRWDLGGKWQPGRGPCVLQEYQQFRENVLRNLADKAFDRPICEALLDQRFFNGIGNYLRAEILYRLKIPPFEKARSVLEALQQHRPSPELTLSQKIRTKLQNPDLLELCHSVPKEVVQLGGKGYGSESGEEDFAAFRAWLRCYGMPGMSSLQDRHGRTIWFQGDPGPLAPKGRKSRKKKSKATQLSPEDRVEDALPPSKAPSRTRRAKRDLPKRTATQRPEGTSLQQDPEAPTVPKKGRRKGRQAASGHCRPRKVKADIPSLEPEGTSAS
Sequence of G/T mismatch-specific thymine DNA glycosylase (Homo sapiens) (Q13569 whole entry, the tested form may be a part): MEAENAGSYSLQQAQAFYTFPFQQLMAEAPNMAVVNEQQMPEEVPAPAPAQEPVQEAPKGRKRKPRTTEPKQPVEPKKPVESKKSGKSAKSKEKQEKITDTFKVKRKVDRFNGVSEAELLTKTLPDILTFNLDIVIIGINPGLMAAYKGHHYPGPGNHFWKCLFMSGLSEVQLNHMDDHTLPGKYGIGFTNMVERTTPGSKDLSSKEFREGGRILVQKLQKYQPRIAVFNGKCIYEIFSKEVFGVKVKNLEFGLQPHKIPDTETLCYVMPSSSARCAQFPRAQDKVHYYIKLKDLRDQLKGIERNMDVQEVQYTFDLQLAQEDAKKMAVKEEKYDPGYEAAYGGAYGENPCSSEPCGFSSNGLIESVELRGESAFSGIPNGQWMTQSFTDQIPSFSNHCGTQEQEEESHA
Sequence of Uracil-DNA glycosylase (Homo sapiens) (P13051 whole entry): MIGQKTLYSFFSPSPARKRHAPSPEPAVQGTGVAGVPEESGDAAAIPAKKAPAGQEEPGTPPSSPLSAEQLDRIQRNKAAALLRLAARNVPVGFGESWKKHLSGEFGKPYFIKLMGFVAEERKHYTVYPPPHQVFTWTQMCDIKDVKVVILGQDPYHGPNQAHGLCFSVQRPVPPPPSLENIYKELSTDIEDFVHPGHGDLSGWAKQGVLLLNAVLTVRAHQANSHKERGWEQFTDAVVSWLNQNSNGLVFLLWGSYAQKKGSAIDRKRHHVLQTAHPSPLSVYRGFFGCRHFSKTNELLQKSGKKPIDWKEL

inhibition ([1]; Compound Concentration 10.0 uM)	inhibition [2, 10]	inhibition ([3]; Compound Concentration 10.0 uM)	inhibition ([4]; Compound Concentration 10.0 uM)	inhibition ([5]; Compound Concentration 10.0 uM)	inhibition ([6]; Compound Concentration 10.0 uM)	inhibition ([7]; Compound Concentration 10.0 uM)	inhibition ([8]; Compound Concentration 10.0 uM)	inhibition ([9]; Compound Concentration 10.0 uM)	inhibition [2, 11]	inhibition ([1]; Compound Concentration 1.0 uM)	inhibition ([4]; Compound Concentration 1.0 uM)	inhibition ([5]; Compound Concentration 1.0 uM)	inhibition ([6]; Compound Concentration 1.0 uM)	inhibition ([7]; Compound Concentration 1.0 uM)	inhibition ([8]; Compound Concentration 1.0 uM)	inhibition [2, 12]	inhibition ([3]; Compound Concentration 1.0 uM)	inhibition ([9]; Compound Concentration 1.0 uM)	SMILES
8.18%	106%	2.57%	33.2%	-4.83%	54%	61.5%	2%	5.89%	–	–	–	–	–	–	–	–	–	–	O=C(O)Cc1cccc(OCCCN(Cc2cccc(C(F)(F)F)c2Cl)CC(c2ccccc2)c2ccccc2)c1
-1.52%	–	-4.47%	5.8%	-2.26%	47.5%	49.5%	-7.2%	-2.53%	9.87%	–	–	–	–	–	–	–	–	–	CC1(C)C(=O)C(C)(C)c2cc(C(=O)Nc3ccc(C(=O)O)cc3)ccc21
4.65%	–	-4.04%	23.9%	-6.35%	46%	63.4%	-7.2%	-4.32%	44.6%	–	–	–	–	–	–	–	–	–	CCCCN(CCCC)C(=O)CN1C[C@@H](c2cc(OC)c3c(c2)OCO3)[C@H](C(=O)O)[C@H]1CC(C)(C)CCC
2.58%	–	7.93%	17.4%	-1.35%	98.8%	65.3%	-9.18%	-5.59%	27.9%	–	–	–	–	–	–	–	–	–	CCC[C@@H]1CNCc2c1[nH]c(=O)c(C#N)c2N1CCC2(CC1)CC2
9.26%	–	-5.57%	13.7%	-3.17%	98.5%	57.7%	1.34%	-1.51%	13.5%	–	–	–	–	–	–	–	–	–	CCCCCNC(=O)N1CCC(CN(Cc2ccc(Cl)cc2)Cc2ccc([N+](=O)[O-])s2)C1 (stereo not given)
-0.945%	–	14.6%	18.5%	-2.11%	98.5%	60%	17.8%	1.55%	62.7%	–	–	–	–	–	–	–	–	–	Cc1cc(SCc2sc(-c3ccc(C(F)(F)F)cc3)nc2C)ccc1OCC(=O)O
2.87%	–	-2.18%	13%	-6.35%	97.1%	57%	–	3.85%	4.46%	0.477%	10.9%	-4.09%	39%	54.1%	-4.79%	–	–	–	COc1ccccc1Nc1nc(-c2nn(Cc3c(F)cc(OCCCO)cc3F)c3ccccc23)ncc1OC
6.04%	–	34.2%	12%	1.86%	51.7%	59.4%	5.22%	-0.764%	43.2%	–	–	–	–	–	–	–	–	–	CC[C@H](Nc1c(C#N)c(-c2ccc(-c3cccc(C)c3F)cc2)nc2cnccc12)C(=O)O
4.47%	–	1.43%	20.2%	-7.26%	97.2%	57.5%	-3.26%	5.38%	10.8%	–	–	–	–	–	–	–	–	–	O=c1[nH]c2ccccc2n1CCCN1CCN(C(c2ccccc2)c2ccccc2)CC1
8.79%	–	-4.85%	11.5%	-0.672%	39.4%	32.4%	0.775%	4.92%	-9.94%	–	–	–	–	–	–	–	–	–	O=C1c2ccc(Nc3ccc(F)cc3F)cc2CCc2ccc(OC[C@H](O)CO)cc21
8%	–	18.3%	32.3%	-7.92%	49.5%	9.41%	9.85%	1.58%	12%	–	–	–	–	–	–	–	–	–	CC(C)S(=O)(=O)c1ccc2nccc(Nc3ccc4scnc4c3)c2c1
–	–	–	–	–	–	–	–	–	–	-3%	8.89%	-9.77%	57%	41.9%	15.4%	1.82%	4.86%	-7.84%	O=C(NOCC1CC1)c1ccc(F)c(F)c1Nc1ccc(I)cc1Cl
4.62%	–	-0.542%	15.6%	4.71%	63%	67.5%	-7.86%	1.04%	–	-5.93%	3.32%	-5.67%	34.4%	101%	–	11.8%	-9.65%	-5.15%	C[C@@H]1CN(c2cc(-c3nn(C)c4ccc(OC5(C)CC5)cc34)ncn2)C[C@H](C)O1
3.82%	–	5.63%	9.42%	-6.95%	47.2%	67.5%	3.97%	-3.29%	6.08%	–	–	–	–	–	–	–	–	–	COc1ccc2c(c1)O[C@H](c1ccc(OC)c(OC)c1)C[C@@H]2NC(=O)C1(c2ccc3c(c2)OC(F)(F)O3)CC1
12.3%	–	18.6%	19.5%	-3.56%	59.4%	17.2%	1.48%	2.66%	-8.63%	–	–	–	–	–	–	–	–	–	CCOc1cc(N2CCC(O)CC2)ccc1Nc1ncc2c(n1)N(C)c1ccccc1C(=O)N2C
6.97%	–	15.1%	24.1%	-2.11%	58.9%	65.1%	-3.26%	0.0213%	7.85%	1.91%	16.1%	1.19%	29.4%	–	2.88%	–	-2.97%	–	CC1=C(C#N)C(c2ccc3c(c2)c(NC(=O)c2ccccc2C)nn3C)C(C#N)=C(C)N1
1.96%	–	10%	18.5%	-2.26%	61.7%	64.2%	-4.57%	-1.76%	78.7%	–	–	–	–	–	–	–	–	–	Cc1cc(OCCC(C)(C)O)cc(C)c1-c1ccc(F)c2c1CC[C@H]2Oc1ccc2c(c1)OC[C@H]2CC(=O)O
-0.0214%	–	14.3%	19.3%	-6.47%	52.1%	29%	–	-3.27%	–	7.66%	19.9%	-7.26%	59.1%	76.1%	-7.86%	10.4%	23.6%	-0.489%	NC1(c2ccc(-c3nc4c(O)ccnn4c3-c3ccccc3)cc2)CCC1
4.8%	103%	0.66%	19.5%	-5.29%	100%	58.8%	12.5%	-6.36%	–	–	–	–	–	–	–	–	–	–	CC(C)c1onc(-c2c(Cl)cccc2Cl)c1COc1ccc(/C=C/c2cccc(C(=O)O)c2)c(Cl)c1
3.28%	–	16.7%	15%	-1.8%	41.3%	54.3%	-7.86%	0.276%	-2.82%	–	–	–	–	–	–	–	–	–	Cc1c(N2CCNCC2)nc2ccc(Br)cc2c1C(=O)NC[C@H](CCC(=O)O)c1ccccc1Cl
